Results as given in patent publication US10645930B2, “Fungicidal mixtures based on prothioconazole and a strobilurin derivative” (BASF SE, priority 2002, dated 2020).

Columns and labels:
Puccinia recondita = experiment: Curative activity against brown rust of wheat (wheat seedlings cultivar Kanzler); format: in vivo; details: 7 days
Description: The active compounds, separately or together, were formulated as a 10% emulsion in a mixture of 63% by weight of cyclohexanone and 27% by weight of emulsifier, and diluted with water to the desired concentration. Evaluation was carried out by determining the infected leaf areas in percent. These percentages were converted into efficacies. The efficacy (W) was determined as follows using Abbot's formula: [formula] α corresponds to the fungal infection of the treated plants in % and β corresponds to the fungal infection of the untreated (control) plants in % An efficacy of 0 means that the infection level of the treated plants corresponds to that of the untreated control plants; an efficacy of 100 means that the treated plants were not infected. The expected efficacies of the mixtures of the active compounds were determined using Colby's formula [R. S. Colby, Weeds 15, 20-22 (1967)] and compared with the observed efficacies. E=x+y−x·y/100 Colby's formula: • E expected efficacy, expressed in % of the untreated control, when using the mixture of the active compounds A and B at the concentrations a and b • x efficacy, expressed in % of the untreated control, when using the active compound A at the concentration a • y efficacy, expressed in % of the untreated control, when using the active compound B at the concentration b Leaves of wheat seedlings of the cultivar “Kanzler” grown in pots were dusted with spores of brown rust (Puccinia recondita). The pots were then placed in a chamber with high atmospheric humidity (90-95%), at 20-22° C. for 24 hours. During this time, the spores germinated and the germinal tubes penetrated into the leaf tissue. The next day, the infected plants were sprayed to runoff point with an aqueous formulation of active compound prepared from a stock solution comprising 10% of active compound, 85% of cyclohexanone and 5% of emulsifier. After the spray coating had dried on, the test plants were cultivated in a greenhouse at 20-22° C. and 65-70% relative atmospheric humidity for 7 days. Thereafter, the extent of the rust fungus development on the leaves was determined. The visually determined values for the percentage of diseased leaf areas were converted into efficacies as % of the untreated control. An efficacy of 0 means the same disease level as in the untreated control, an efficacy of 100 means a disease level of 0%. The expected efficacies for the combinations of active compounds were determined using Colby's formula mentioned above and compared with the observed efficacies.

[1] = system: Erysiphe [syn. Blumeria] graminis forma specialis. tritici; experiment: Activity against mildew of wheat (protective, wheat seedlings cultivar Kanzler); format: in vivo; details: 7 days
Description: The active compounds, separately or together, were formulated as a 10% emulsion in a mixture of 63% by weight of cyclohexanone and 27% by weight of emulsifier, and diluted with water to the desired concentration. Evaluation was carried out by determining the infected leaf areas in percent. These percentages were converted into efficacies. The efficacy (W) was determined as follows using Abbot's formula: [formula] α corresponds to the fungal infection of the treated plants in % and β corresponds to the fungal infection of the untreated (control) plants in % An efficacy of 0 means that the infection level of the treated plants corresponds to that of the untreated control plants; an efficacy of 100 means that the treated plants were not infected. The expected efficacies of the mixtures of the active compounds were determined using Colby's formula [R. S. Colby, Weeds 15, 20-22 (1967)] and compared with the observed efficacies. E=x+y−x·y/100 Colby's formula: • E expected efficacy, expressed in % of the untreated control, when using the mixture of the active compounds A and B at the concentrations a and b • x efficacy, expressed in % of the untreated control, when using the active compound A at the concentration a • y efficacy, expressed in % of the untreated control, when using the active compound B at the concentration b Leaves of wheat seedlings of the cultivar “Kanzler” grown in pots were sprayed to runoff point with an aqueous preparation of active compound which had been prepared from a stock solution comprising 10% of active compound, 85% of cyclohexanone. and 5% of emulsifier, and, 24 hours after the spray coating had dried on, the leaves were dusted with spores of mildew of wheat (Erysiphe [syn. Blumeria] graminis forma specialis. tritici). The test plants were then placed in a greenhouse at 20-24° C. and 60-90% relative atmospheric humidity. After 7 days, the extent of the development of the mildew was determined visually in % infection of the entire leaf area. The visually determined values for the percentage of diseased leaf areas were converted into efficacies as % of the untreated control. An efficacy of 0 means the same disease level as in the untreated control, an efficacy of 100 means a disease level of 0%. The expected efficacies for the active compound combinations were determined using Colby's formula mentioned above and compared with the observed efficacies.

[2] = 0.015 ppm active compound in the spray liquor
[3] = 0.25 ppm active compound in the spray liquor
[4] = 1 ppm active compound in the spray liquor
[5] = 0.06 ppm active compound in the spray liquor
[6] = 4 ppm active compound in the spray liquor

SMILES | Efficacy in % of the untreated control (Puccinia recondita; 0.006 ppm active compound in the spray liquor) | Efficacy in % of the untreated control (Puccinia recondita; [2]) | Efficacy in % of the untreated control (Puccinia recondita; [3]) | Efficacy in % of the untreated control (Puccinia recondita; [4]) | Efficacy in % of the untreated control [1, 2] | Efficacy in % of the untreated control [1, 5] | Efficacy in % of the untreated control [1, 3] | Efficacy in % of the untreated control [1, 4] | Efficacy in % of the untreated control [1, 6] | Efficacy in % of the untreated control (Puccinia recondita; [5])
OC(Cc1ccccc1Cl)(Cn1nc[nH]c1=S)C1(Cl)CC1 (centres unmarked) [Compound I, 2-[2-(1-chlorocyclopropyl)-3-(2-chlorophenyl)-2-hydroxypropyl]-2,4-dihydro-[1,2,4]-triazole-3-thione] | 0 % of the untreated control | 0 % of the untreated control | 0 % of the untreated control | 0 % of the untreated control | 0 % of the untreated control | 0 % of the untreated control | 0 % of the untreated control | 0 % of the untreated control | 22 % of the untreated control | –
CO/N=C(/C(=O)OC)c1ccccc1CO/N=C(\C)c1cccc(C(F)(F)F)c1 [Compound II, trifloxystrobin] | – | – | 0 % of the untreated control | – | – | 0 % of the untreated control | 22 % of the untreated control | 44 % of the untreated control | 83 % of the untreated control | 0 % of the untreated control
CO/C=C(/C(=O)OC)c1ccccc1COc1cccc(C(F)(F)F)n1 [Compound III, picoxystrobin] | – | – | 0 % of the untreated control | 33 % of the untreated control | – | – | 11 % of the untreated control | – | – | 0 % of the untreated control
COC(=O)N(OC)c1ccccc1COc1ccn(-c2ccc(Cl)cc2)n1 [Compound IV, pyraclostrobin] | – | – | 0 % of the untreated control | – | – | – | 0 % of the untreated control | 0 % of the untreated control | – | 0 % of the untreated control
